# Measurements published in patent US20260132129A1 (Genesis Therapeutics, Inc., priority 2022, published 2026).
# Biological target: T1, PI3Kα H1047R (T47D cells) (Homo sapiens, UniProt P42336, H1047R)
# T1 construct: endogenous in cells; host or cells: T47D cells
# Assay: PI3Kα cellular assay: pAKT HTRF in T47D cells after EGF stimulation
# Type: cell-based
# Details: for IC50: T47D cells (PI3Kα H1047R), pAKT S473 HTRF
# How it was run: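 T47D cells (PIK3CA H1047R) serum-starved 16 h, then treated 1 h at 37 °C with compound (10,000 nM top, 3-fold steps to 0.5 nM). After 10 min stimulation with 20 ng/mL EGF, cells were lysed and pAKT measured by HTRF.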
# [1] = selectivity of T47D (H1047R) over SKBR3 (WT) pAKT IC50
# [2] = 1 hr compound, 20 ng/ml EGF 10 min
# [3] = selectivity T47D (H1047R) over SKBR3 (WT), pAKT HTRF
# T1 sequence (P42336 whole entry H1047R): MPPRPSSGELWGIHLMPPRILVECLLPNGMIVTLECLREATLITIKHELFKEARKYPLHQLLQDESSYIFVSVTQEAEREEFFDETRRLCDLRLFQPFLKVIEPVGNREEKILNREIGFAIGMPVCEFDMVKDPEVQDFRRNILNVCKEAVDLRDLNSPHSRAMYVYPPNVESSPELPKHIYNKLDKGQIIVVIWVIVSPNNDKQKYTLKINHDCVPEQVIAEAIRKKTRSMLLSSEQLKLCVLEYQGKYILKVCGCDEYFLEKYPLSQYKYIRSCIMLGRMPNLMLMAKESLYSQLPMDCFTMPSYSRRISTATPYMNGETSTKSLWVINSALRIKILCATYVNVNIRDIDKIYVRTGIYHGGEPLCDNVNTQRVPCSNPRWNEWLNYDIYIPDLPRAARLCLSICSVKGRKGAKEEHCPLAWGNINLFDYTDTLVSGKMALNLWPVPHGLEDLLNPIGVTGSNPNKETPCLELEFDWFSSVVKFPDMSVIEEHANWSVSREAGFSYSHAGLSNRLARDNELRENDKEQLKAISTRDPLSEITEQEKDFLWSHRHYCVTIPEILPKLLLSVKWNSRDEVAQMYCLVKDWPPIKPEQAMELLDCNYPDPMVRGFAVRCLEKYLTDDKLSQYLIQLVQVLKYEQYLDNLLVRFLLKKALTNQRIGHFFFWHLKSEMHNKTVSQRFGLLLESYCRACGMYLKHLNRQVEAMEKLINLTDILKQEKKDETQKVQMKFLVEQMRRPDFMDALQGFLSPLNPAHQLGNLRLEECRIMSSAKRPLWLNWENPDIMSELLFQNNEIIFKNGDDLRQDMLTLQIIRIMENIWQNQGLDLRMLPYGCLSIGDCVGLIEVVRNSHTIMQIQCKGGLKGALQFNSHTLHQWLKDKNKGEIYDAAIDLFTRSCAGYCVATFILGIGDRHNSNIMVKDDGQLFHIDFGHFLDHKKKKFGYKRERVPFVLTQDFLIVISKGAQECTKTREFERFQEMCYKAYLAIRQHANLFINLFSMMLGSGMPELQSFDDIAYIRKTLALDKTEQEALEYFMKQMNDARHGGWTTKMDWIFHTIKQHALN
# T1 sequence (P27986 whole entry partner): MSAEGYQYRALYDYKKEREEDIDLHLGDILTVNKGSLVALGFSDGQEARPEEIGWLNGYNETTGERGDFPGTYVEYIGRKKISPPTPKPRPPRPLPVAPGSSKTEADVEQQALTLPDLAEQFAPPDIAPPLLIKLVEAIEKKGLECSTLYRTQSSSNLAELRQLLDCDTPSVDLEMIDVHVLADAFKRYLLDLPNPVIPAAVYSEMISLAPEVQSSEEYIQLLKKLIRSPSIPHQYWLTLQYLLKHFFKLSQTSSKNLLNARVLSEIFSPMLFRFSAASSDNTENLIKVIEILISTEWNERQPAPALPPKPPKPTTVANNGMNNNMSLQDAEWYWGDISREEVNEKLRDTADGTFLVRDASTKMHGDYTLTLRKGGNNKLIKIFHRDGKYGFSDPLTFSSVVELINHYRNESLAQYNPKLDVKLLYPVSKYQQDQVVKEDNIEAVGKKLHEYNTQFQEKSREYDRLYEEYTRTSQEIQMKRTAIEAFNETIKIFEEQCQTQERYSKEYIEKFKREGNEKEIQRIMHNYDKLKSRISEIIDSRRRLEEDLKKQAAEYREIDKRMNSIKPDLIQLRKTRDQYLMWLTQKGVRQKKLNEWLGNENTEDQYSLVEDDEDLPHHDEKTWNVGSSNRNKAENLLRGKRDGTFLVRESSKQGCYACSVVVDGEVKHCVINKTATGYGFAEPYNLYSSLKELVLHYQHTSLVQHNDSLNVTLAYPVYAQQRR
Structure (SMILES),IC50 (EGF stimulation) [nM],T47D pAKT S473 HTRF IC50 (H1047R): T47D (H1047R) selectivity over SKBR3 (WT) [1],IC50 [2] [nM],T47D pAKT S473 HTRF IC50 (H1047R): T47D (H1047R) selectivity over SKBR3 (WT) [3]
"Cc1cc([C@@H](C)Nc2ccccc2C(=O)O)c2nc(-c3ccc4c(c3)c(C)nn4C3CC3)c(C)c(=O)n2c1 (single isomer, unassigned) [Compound 892]",< 100,A (A denotes >20-fold),–,–
Cc1cc([C@H](C)Nc2ccccc2C(=O)O)c2nc(-c3cc[nH]c(=O)c3)cc(=O)n2c1 [Compound 462],–,–,> 2000,C (C denotes ≤5-fold)
CCC(Nc1ccccc1S(N)(=O)=O)c1cc(C)cn2c(=O)cc(N3CCOCC3)nc12 (stereo not drawn) [Compound 1159],> 2000,–,–,C (C denotes ≤5-fold)
Cc1cc([C@@H](C)NC2=C(CC(=O)O)C=CCC2)c2nc(N3CCSCC3)cc(=O)n2c1 [Compound 285],–,–,> 2000,C (C denotes ≤5-fold)
Cc1cc(C(C)Nc2ccccc2C(=O)O)c2nc(-c3cc(F)cc(C4CC4)c3)c(C)c(=O)n2c1 (stereo not drawn) [Compound 1169],< 100,–,–,A (A denotes >20-fold)
Cc1cc(C(C)Nc2ccccc2C(=O)O)c2nc(-c3ccc[nH]c3=O)cc(=O)n2c1 (stereo not drawn) [Compound 144],–,–,> 2000,C (C denotes ≤5-fold)
CC1=CN2C(=O)CC(N3CCOCC3)N=C2C(C(C)Nc2ccccc2)=C1 (stereo not drawn) [Compound 47],–,–,> 2000,C (C denotes ≤5-fold)
Cc1cc(C(C)Nc2ccccc2C(=O)O)c2nc(-c3ccnc(C)c3)c(C)c(=O)n2c1 (stereo not drawn) [Compound 1202],–,–,–,A (A denotes >20-fold)
Cc1cc(C(C)Nc2ccccc2S(N)(=O)=O)c2nc(-c3ccc(C4CCNCC4)nc3)c(C)c(=O)n2c1 (stereo not drawn) [Compound 1304],500 to 2000,–,–,B (B denotes 20-fold≥value>5-fold)
Cc1cc([C@@H](C)Nc2ccccc2C(=O)O)c2nc(N3Cc4ccccc4[C@H]3C)cc(=O)n2c1 [Compound 655],> 2000,C (C denotes ≤5-fold),–,–
Cc1ccc(N[C@H](C)c2cc(C)cn3c(=O)c(C)c(-c4cccc(F)c4)nc23)c(C(=O)O)c1 [Compound 1357],–,–,–,C (C denotes ≤5-fold)
Cc1cc([C@@H](C)Nc2ccccc2C(=O)O)c2nc(N3C[C@H](C)C[C@H](C(F)F)C3)cc(=O)n2c1 [Compound 868],500 to 2000,B (B denotes 20-fold≥value>5-fold),–,–
Cc1cc([C@H](C)Nc2ccccc2S(N)(=O)=O)c2nc(-c3ccc4c(C)nn(C5CC5)c4c3)c(C)c(=O)n2c1 [Compound 1028],–,C (C denotes ≤5-fold),–,–
Cc1cc([C@@H](C)Nc2ccccc2C(=O)O)c2nc(-c3cnc4c(c3)c(C)nn4C)c(C)c(=O)n2c1 [Compound 762],< 100,A (A denotes >20-fold),–,–
Cc1cc([C@H](C)Nc2ccccc2C(=O)O)c2nc(-c3ccc4c(c(N)nn4C)c3C)c(C)c(=O)n2c1 [Compound 788],100 to 500,A (A denotes >20-fold),–,–
Cc1cc(C(C)Nc2ccccc2C(=O)O)c2nc(-n3cnc4ccc(O)cc43)cc(=O)n2c1 (stereo not drawn) [Compound 799],> 2000,C (C denotes ≤5-fold),–,–
"Cc1cc([C@@H](C)Nc2ccccc2C(=O)O)c2nc(-c3ccc(C4CC4)nc3)c(C)c(=O)n2c1 (single isomer, unassigned) [Compound 973]",< 100,A (A denotes >20-fold),–,–
CNC(=O)c1ccc(-c2cc(=O)n3cc(C)cc(C(C)Nc4ccccc4C(=O)O)c3n2)c(C)c1 (stereo not drawn) [Compound 356],–,–,> 2000,C (C denotes ≤5-fold)
